Calls of active or inactive are those of the source. The calls are words filed in the database; no cut-off is given here.
Tests used:
[1] = biological target: Xanthine dehydrogenase/oxidase (Homo sapiens, UniProt P47989); assay: Inhibition of xanthine oxidase
[2] = test system: Radical scavenging activity; assay: Antioxidant activity assessed as DPPH free radical scavenging at 300 uM; assay type: functional
Escherichia coli = assay: Inhibition of oxygen free radical-induced DNA damage of Escherichia coli plasmid DNA pBR322 by agarose gel electrophoresis
[3] = test system: Radical scavenging activity; assay: Antioxidant activity assessed as DPPH free radical scavenging; assay type: functional

Xanthine dehydrogenase/oxidase, sequence (P47989 whole entry): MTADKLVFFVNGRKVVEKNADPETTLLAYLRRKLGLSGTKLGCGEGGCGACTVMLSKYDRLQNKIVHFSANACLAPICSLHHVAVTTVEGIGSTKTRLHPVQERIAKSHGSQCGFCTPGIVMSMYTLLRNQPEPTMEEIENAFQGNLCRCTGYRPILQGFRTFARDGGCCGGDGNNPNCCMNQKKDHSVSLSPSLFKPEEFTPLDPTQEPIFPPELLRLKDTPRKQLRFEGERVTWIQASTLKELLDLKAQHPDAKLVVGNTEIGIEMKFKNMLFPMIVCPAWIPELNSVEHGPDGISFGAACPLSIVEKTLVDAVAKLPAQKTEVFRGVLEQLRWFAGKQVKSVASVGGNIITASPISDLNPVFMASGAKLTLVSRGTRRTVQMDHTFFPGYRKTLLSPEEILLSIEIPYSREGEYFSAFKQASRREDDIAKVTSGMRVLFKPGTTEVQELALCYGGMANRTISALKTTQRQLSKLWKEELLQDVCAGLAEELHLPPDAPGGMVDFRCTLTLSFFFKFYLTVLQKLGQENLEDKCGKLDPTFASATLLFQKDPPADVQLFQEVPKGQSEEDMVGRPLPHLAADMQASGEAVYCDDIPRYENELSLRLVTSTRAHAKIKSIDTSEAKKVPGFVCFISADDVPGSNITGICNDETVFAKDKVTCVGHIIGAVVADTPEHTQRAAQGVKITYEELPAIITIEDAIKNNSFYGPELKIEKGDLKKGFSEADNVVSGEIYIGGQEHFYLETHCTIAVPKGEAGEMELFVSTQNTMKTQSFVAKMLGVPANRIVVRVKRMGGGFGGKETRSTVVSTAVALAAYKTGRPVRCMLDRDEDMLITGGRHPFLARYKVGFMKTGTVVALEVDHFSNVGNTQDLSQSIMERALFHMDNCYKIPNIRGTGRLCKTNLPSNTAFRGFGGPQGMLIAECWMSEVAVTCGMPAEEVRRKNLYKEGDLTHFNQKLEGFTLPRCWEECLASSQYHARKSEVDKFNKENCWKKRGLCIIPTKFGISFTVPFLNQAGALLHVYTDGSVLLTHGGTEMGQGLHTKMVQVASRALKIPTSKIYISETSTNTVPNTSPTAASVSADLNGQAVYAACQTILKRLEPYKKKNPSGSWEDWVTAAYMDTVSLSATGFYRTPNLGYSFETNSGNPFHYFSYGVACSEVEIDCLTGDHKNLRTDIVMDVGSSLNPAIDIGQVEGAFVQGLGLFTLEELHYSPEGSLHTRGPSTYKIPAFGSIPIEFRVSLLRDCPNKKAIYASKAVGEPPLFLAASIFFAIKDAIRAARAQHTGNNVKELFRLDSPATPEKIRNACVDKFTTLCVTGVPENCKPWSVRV

Row | SMILES | IC50 [1] [µM] | inhibition [2] [%] | Activity (Escherichia coli) | IC50 [3] [µM]
1 | CCC(C)C(=O)C1=C(O)[C@]2(C[C@H]3[C@H](CC[C@@]3(C)O)[C@](C)(O)C2)C(=O)[C@](C)(CC=C(C)C)C1=O (some centres not stated) [HYPERIELLIPTONE HB] | 42.1 | 4.5 | Active | –
2 | CCC(C)C(=O)C1=C(O)[C@@](C)(CC=C(C)C)C(=O)[C@@]2(C[C@H]3[C@H](CC[C@@]3(C)O)[C@](C)(O)C2)C1=O (some centres not stated) [HYPERIELLIPTONE HB] | 42.1 | 4.5 | Active | –
3 | Cc1c(C)c2c(c(C)c1O)CC[C@@](C)(CCCC(C)CCCC(C)CCCC(C)C)O2 (single isomer, unassigned) [ALPHA-TOCOPHEROL] | – | – | – | 18.1
